In patent US20050260715A1, “Efficient methods for producing antimicrobial cationic peptides in host cells” (priority 1998, published 2005) one finds MIC data, which are given here for three compounds.

Like-named read-outs stand apart in the source and are kept apart here. Square brackets hold non-standard residues; d marks the D form. Ends that are not written are not given here. Peptide text beside a SMILES is read from it. * marks the point of attachment. hSer(lactone) = O=C1OCC[C@@H]1N*; hSer = N[C@@H](CCO)C(=O)O

One experiment deals with A. calcoaceticus AC2. The method, then:
(§1) In the present case, the antimicrobial activities of MBI-11B7CN, MBI-11B7HSL (homoserine lactone form) and MBI-11B7HS (homoserine form) were tested against various gram-negative and gram-positive strains, including antibiotic resistant strains. The assay was performed as described in “Methods for Dilution Antimicrobial Susceptibility Tests for Bacteria That Grow Aerobically-Fourth Edition; Approved Standard” NCCLS document M7-A4 (ISBN 1-56238-309-4) Vol. 17, No. 2 (1977).
(§2) The antimicrobial activities of the chemically synthesized MBI-11B7CN peptide and recombinant DNA synthesized MBI-11B7HSL (homoserine lactone form) and MBI-11B7HS (homoserine form) peptides were tested against various gram-negative and positive strains of bacteria, including antibiotic resistant strains. The Agarose Dilution Assay was performed as described in “Methods for Dilution Antimicrobial Susceptibility Tests for Bacteria That Grow Aerobically-Fourth Edition; Approved Standard” NCCLS document M7-A4 (ISBN 1-56238-309-4) Vol. 17, No 2 (1977).
(§3) The agarose dilution assay measures antimicrobial activity of peptides and peptide analogues, which is expressed as the minimum inhibitory concentration (MIC) of the peptides.
(§4) In order to mimic in vivo conditions, calcium and magnesium supplemented Mueller Hinton broth is used in combination with a low EEO agarose as the bacterial growth medium. Agarose, rather than agar, is used as the charged groups in agar prevent peptide diffusion through the media. The medium is autoclaved and then cooled to 50° C.-55° C. in a water bath before aseptic addition of anti-microbial solutions. The same volume of different concentrations of peptide solution are added to the cooled molten agarose, which is then poured to a depth of 3-4 mm.
(§5) The bacterial inoculum is adjusted to a 0.5 McFarland turbidity standard (PML Microbiological) and then diluted 1:10 before application on to the agarose plate. The final inoculum applied to the agarose is approximately 10^4 CFU in a 5-8 mm diameter spot. The agarose plates are incubated at 35° C.-37° C. for 16 to 20 hours.

In another experiment the test system is E. cloacae ECL7. How it is done: as §1, §2, §3, §4, §5
Another experiment has as its system E. coli ECO5. The method, then: as §1, §2, §3, §4, §5
The next experiment relates to E. faecalis EFS1. How it is done: as §1, §2, §3, §4, §5
In the next experiment the test system is E. faecalis EFS8. The method, then: as §1, §2, §3, §4, §5
For the next experiment, the system named is K. pneumoniae KP1. How it is done:
as §1, §2, §3, §4, §5

A further experiment deals with P. aeruginosa PA4. The method, then: as §1, §2, §3, §4, §5
The test system of a further experiment is S. aureus SA14. How it is done:
as §1, §2, §3, §4, §5

Another experiment has as its system S. aureus SA93. How it is done: as §1, §2, §3, §4, §5
The test system of a further experiment is S. epidermidis SE10. The method, then: as §1, §2, §3, §4, §5
Another experiment deals with S. maltophilia SMA2. The method, then: as §1, §2, §3, §4, §5
In a further experiment the test system is S. marcescens SMS3. How it is done: as §1, §2, §3, §4, §5
The mark [1] stands for this setting: A. calcoaceticus, organism # AC2, source ATCC, agarose dilution.
Setting [2] is: E. cloacae, organism # ECL7, source ATCC, agarose dilution.
Setting [3] is: E. coli, organism # ECO5, source ATCC, agarose dilution.
Where [4] appears, read: E. faecalis, organism # EFS1, source ATCC, agarose dilution.
The mark [5] stands for this setting: E. faecalis, organism # EFS8, source ATCC, agarose dilution.
Setting [6] is: K. pneumoniae, organism # KP1, source ATCC, agarose dilution.
Setting [7] is: P. aeruginosa, organism # PA4, source ATCC, agarose dilution.
The mark [8] stands for this setting: S. aureus, organism # SA14, source Bayer, agarose dilution.
Setting [9] is: S. aureus, organism # SA93, source Bayer, agarose dilution.
Setting [10] is: S. epidermidis, organism # SE10, source Chow, agarose dilution.
The mark [11] stands for this setting: S. maltophilia, organism # SMA2, source ATCC, agarose dilution.
The mark [12] stands for this setting: S. marcescens, organism # SMS3, source ATCC, agarose dilution.

On to `CC[C@H](C)[C@H](N)C(=O)N[C@@H](CC(C)C)C(=O)N[C@@H](CCCNC(=N)N)C(=O)N[C@@H](Cc1c[nH]c2ccccc12)C(=O)N1CCC[C@H]1C(=O)N[C@@H](Cc1c[nH]c2ccccc12)C(=O)N[C@@H](Cc1c[nH]c2ccccc12)C(=O)N1CCC[C@H]1C(=O)N[C@@H](Cc1c[nH]c2ccccc12)C(=O)N[C@@H](CCCNC(=N)N)C(=O)N[C@@H](CCCNC(=N)N)C(=O)N[C@@H](CCCCN)C(=O)N[C@@H](CCO)C(=O)O` [11B7HS] (H-ILRWPWWPWRRK[hSer]-OH; N-terminus assumed), for which the MIC is 2 µg/mL in the experiment on A. calcoaceticus AC2; over 64 µg/mL in the experiment on E. cloacae ECL7 (ECL7); 32 µg/mL in the experiment on E. coli ECO5 (ECO5); 2 µg/mL with E. faecalis EFS1 (EFS1); 32 µg/mL in the experiment with E. faecalis EFS8 (EFS8); 32 µg/mL in the experiment on K. pneumoniae KP1 (KP1). The MIC with P. aeruginosa PA4 (PA4) was over 64 µg/mL; with S. aureus SA14 (SA14) it was 2 µg/mL; with S. aureus SA93 (SA93) it was 1 µg/mL; in the experiment with S. epidermidis SE10 (SE10), 8 µg/mL; in the experiment on S. maltophilia SMA2 (SMA2), 64 µg/mL; in the experiment on S. marcescens SMS3 (SMS3), over 64 µg/mL.

Take ILRWPWWPWRRK-NH2 [11B7CN]: the MIC in the experiment on A. calcoaceticus AC2 (setting [1]) was 2 µg/mL; in the experiment on E. cloacae ECL7 (setting [2]) it was over 64 µg/mL; in the experiment on E. coli ECO5 (setting [3]), 8 µg/mL; in the experiment on E. faecalis EFS1 (setting [4]), 2 µg/mL; with E. faecalis EFS8 (setting [5]), 16 µg/mL; in the experiment on K. pneumoniae KP1 (setting [6]), 8 µg/mL. Besides, the MIC was over 64 µg/mL in the experiment with P. aeruginosa PA4 (setting [7]); 4 µg/mL in the experiment on S. aureus SA14 (setting [8]); 1 µg/mL in the experiment with S. aureus SA93 (setting [9]); 2 µg/mL in the experiment with S. epidermidis SE10 (setting [10]); 32 µg/mL in the experiment with S. maltophilia SMA2 (setting [11]); over 64 µg/mL with S. marcescens SMS3 (setting [12]).

Turning to `CC[C@H](C)[C@H](N)C(=O)N[C@@H](CC(C)C)C(=O)N[C@@H](CCCNC(=N)N)C(=O)N[C@@H](Cc1c[nH]c2ccccc12)C(=O)N1CCC[C@H]1C(=O)N[C@@H](Cc1c[nH]c2ccccc12)C(=O)N[C@@H](Cc1c[nH]c2ccccc12)C(=O)N1CCC[C@H]1C(=O)N[C@@H](Cc1c[nH]c2ccccc12)C(=O)N[C@@H](CCCNC(=N)N)C(=O)N[C@@H](CCCNC(=N)N)C(=O)N[C@@H](CCCCN)C(=O)N[C@H]1CCOC1=O` [11B7HSL] (H-ILRWPWWPWRRK-{hSer(lactone)}; N-terminus assumed), the MIC is 4 µg/mL with A. calcoaceticus AC2 (setting [1]); over 64 µg/mL with E. cloacae ECL7 (setting [2]); 8 µg/mL in the experiment with E. coli ECO5 (setting [3]); 1 µg/mL in the experiment with E. faecalis EFS1 (setting [4]); 16 µg/mL in the experiment with E. faecalis EFS8 (setting [5]); 8 µg/mL with K. pneumoniae KP1 (setting [6]). Further, the minimum inhibitory concentration (MIC) in the experiment on P. aeruginosa PA4 (setting [7]) is over 64 µg/mL; with S. aureus SA14 (setting [8]) it was 1 µg/mL; in the experiment on S. aureus SA93 (setting [9]), 1 µg/mL; with S. epidermidis SE10 (setting [10]) it was 4 µg/mL; in the experiment with S. maltophilia SMA2 (setting [11]) it was 32 µg/mL; in the experiment on S. marcescens SMS3 (setting [12]), over 64 µg/mL.
